In test [1] the test system is PKB Ser473 phosphorylation in Rat1-myr-HA-p110 alpha cells. The experiment in a line: Reverse protein array, PKB Ser473 phosphorylation in Rat1-myr-HA-p110 alpha cells. It is filed as cell-based. The note with it: Rattus norvegicus, 0.5 h, 30 minutes compound incubation, read-out: p-PKB/IC50_alpha.
For test [2], the system named is PKB Ser473 phosphorylation in Rat1-myr-HA-p110 beta cells. The test is described as follows: Reverse protein array, PKB Ser473 phosphorylation in Rat1-myr-HA-p110 beta cells. It is filed as cell-based. Conditions: Rattus norvegicus, 0.5 h, 30 minutes compound incubation, read-out: p-PKB/IC50_beta.

On to `Cc1nc(C(F)(F)F)ccc1-n1c(=O)n(C)c2cnc3ccc(-c4cncc(C(C)(C)O)c4)cc3c21` [Example 33.1, 8-[5-(1-Hydroxy-1-methyl-ethyl)-pyridin-3-yl]-3-methyl-1-(2-methyl-6-trifluoromethyl-pyridin-3-yl)-1,3-dihydro-imidazo[4,5-c]quinolin-2-one], for which the results for the IC50 in test [1] and in test [2] were 0.019 µM and 0.05 µM, respectively.

Turning to `CCNc1ncc(-c2ccc3ncc4c(c3c2)n(-c2ccc(N3CC[C@@H](O)C3)nc2C)c(=O)n4C)cc1C(F)(F)F` [Example 34.2, 8-(6-Ethylamino-5-trifluoromethyl-pyridin-3-yl)-1-[6-((R)-3-hydroxy-pyrrolidin-1-yl)-2-methyl-pyridin-3-yl]-3-methyl-1,3-dihydro-imidazo[4,5-c]quinolin-2-one], the values for the IC50 in test [1] and in test [2] were 0.0117 µM and 0.0152 µM, respectively.

On to `CCNc1ncc(-c2ccc3ncc4c(c3c2)n(-c2ccc(N3CC[C@@H](O)C3)nc2C)c(=O)n4C)cc1COCC` [Example 34.4, 8-(5-Ethoxymethyl-6-ethylamino-pyridin-3-yl)-1-[6-((R)-3-hydroxy-pyrrolidin-1-yl)-2-methyl-pyridin-3-yl]-3-methyl-1,3-dihydro-imidazo[4,5-c]quinolin-2-one], for which the IC50 in test [1] was determined as 0.035 µM; in test [2] it was 0.0279 µM.

The values above are taken from patent US20100311714A1, “1H-IMIDAZO[4,5-c]QUINOLINONE COMPOUNDS” (priority 2009, published 2010).
